Several values for one entry are separate records, joined by “and”; a condition that tells them apart may be missing. Identical values can stand only once.
What was measured:
[1] = biological target: delta-opioid receptor (Homo sapiens, UniProt P41143); experiment: Radioligand competition assay; assay type: binding
[2] = tested on: Cryptococcus neoformans NF3102; experiment: Antifungal MIC; assay type: cell-based
[3] = tested on: Candida parapsilosis NF2903; experiment: Antifungal MIC; assay type: cell-based; details: Lodderomyces parapsilosis
[4] = tested on: S. cerevisiae (BY4743 strain); experiment: Yeast growth inhibition dose response (OD600); assay type: cell-based; details: BY4743, 14 h, 30 °C, YPD, 2% DMSO
Experimental: Figure 2 FR171456 targets Erg26p in S. cerevisiae. (a) Structures of FR171456, and two related triterpenes (compound 1, compound 2). (b) Duplicate 12-point Dose response curves of wild-type diploid yeast with three compounds in a. Strain BY4743 was grown for 14 h at 30 °C in YPD media with 2% DMSO containing a dilution series of FR171456: black; Compound-1: light grey circles, and Compound-2: light grey squares. Y axis: OD600 absorbance indicating yeast growth, x axis: compound concentrations (log10 μM). (c) Haploinsufficiency and homozygous profiling (HIP resp. HOP) for FR171456 at 4 μM. Each mutant strain in the pool is represented by a circle (non-essential genes) or a square (essential genes). The, y axis represents strain sensitivity and x axis represents z-score (specificity). In (d), the z-scores of the HIP pool strains (y axis) plotted against increasing doses of FR171456 (x axis; μM). (e) Relative compound sensitivity profile of the erg26Δ/ERG26 strain across HIP experiments performed with 1,800 diverse small molecule yeast proliferation inhibitors. TEXT PRINTED IN THE PICTURE: (a) FR171456: MW 516.68; S.c. […] IC50 >200 μM | (a) Compound 2: MW 532.68; S.c. IC50 >200 μM

[5] = tested on: F. solani; experiment: Combination with clinical antifungal agents (Loewe synergy, growth by OD530); assay type: cell-based; details: >1 is synergistic
Experimental: incubated for 24 h in increasing combined doses of FR171456 and Amphotericin B, and growth
assessed by OD530. (a) Normalised growth rates plotted as % inhibition of growth. (b) Loewe excess
heat map showing difference between predicted scores based upon the addition of each agent
alone and the actual values detected plotted as difference in % of inhibition. (c) Loewe isobologram
- a comparison of the doses of each compound needed to achieve 50% inhibition of proliferation.

[6] = tested on: HCV replicon subgenomic genotype 1b; experiment: HCV replicon assay in Huh-7 cells (luciferase); details: Hepatitis C virus; Huh-7 cell-based assay, 48 h
Experimental: (§1) The inhibitor screening was performed in 1,536-well plate with 3,000 cells per well, using Huh-7 cells containing the HCV replicon subgenomic genotype 1b, maintained in DMEM, supplemented with (1 × ) L-glutamine (L-Glue), 1 × non-essential amino acids, 10% heat-inactivated fetal bovine serum (FBS), and 1 mg ml^–1 G418, and incubated with compounds for 48 h at 37 °C, 5% CO2. […] Following compound incubation, Resazurin solution (10 × : 1 μg μl^–1 Resazurin in DMSO) diluted to 1 × was then added to a volume of 0.5 μl to each well and incubated for further 3 h at 37 °C, 5% CO2 to monitor cell viability. Subsequently 15 μl, diluted 1:2 from stock of Steady- Glo (Promega) was added and the luminescence from the HCV replicon was monitored using the Envision (Envision US Lum, using 0.1 s per well measurement time).

[7] = tested on: panel of 24 receptors/enzymes; experiment: Pharmacological profiling against a panel of 24 receptors/enzymes; assay type: binding
[8] = tested on: S. cerevisiae; experiment: Yeast fermentation with FR171456 and metabolic profiling for substrate accumulation; assay type: cell-based
Experimental: In the fermentation experiment, a single yeast colony was grown in 10 ml YP with galactose (2%) & Raffinose (1%) for 5 h (OD 1.0) at 30 °C. An inoculum (70 μl) from the same culture was used to inoculate 400 ml YP-gal (2%)+Raffinose (1%). This culture was then grown overnight at 30 °C. The OD at this point was 0.7. This culture was used to seed 20-l fermenter maintained at 30 °C. When OD in the fermenter was 0.7, then 1466, nM (IC80) of FR171456 was added to the fermenter. The cell pellets (3.8 g) were harvested after 7 h. Erg26p substrate (1.95 mg) was obtained by lipid extraction with ethylacetate and methanol.
Lipid extracts from yeast cells were prepared as described as above. Ergosterol and 4α-methylzymosterol-4-carboxylic acid were analysed on an UltiMate 3000 RS LC (Thermo Fisher Scientific, Waltham, MA, USA) coupled to a 4000 QTRAP (AB Sciex, Foster City, CA, USA), which was equipped with a ESI-Turbo Spray ion source (AB Sciex). […]
Ion source parameters and compound-dependent instrument parameters were optimized by infusing pure standard solutions of ergosterol and 4α-methylzymosterol-4-carboxylic acid, respectively. […] All mass transitions were monitored for 65 msec per SRM scan with a unit/unit resolution for Q1/Q3. […]

[9] = tested on: serum cholesterol; details: cited from earlier work
[10] = tested on: replicon-carrying Huh-7 cells; experiment: Proliferation/viability of replicon-carrying Huh-7 cells (resazurin); assay type: cell-based, human; details: replicon assay conditions
Experimental: as §1

delta-opioid receptor, sequence (P41143 whole entry): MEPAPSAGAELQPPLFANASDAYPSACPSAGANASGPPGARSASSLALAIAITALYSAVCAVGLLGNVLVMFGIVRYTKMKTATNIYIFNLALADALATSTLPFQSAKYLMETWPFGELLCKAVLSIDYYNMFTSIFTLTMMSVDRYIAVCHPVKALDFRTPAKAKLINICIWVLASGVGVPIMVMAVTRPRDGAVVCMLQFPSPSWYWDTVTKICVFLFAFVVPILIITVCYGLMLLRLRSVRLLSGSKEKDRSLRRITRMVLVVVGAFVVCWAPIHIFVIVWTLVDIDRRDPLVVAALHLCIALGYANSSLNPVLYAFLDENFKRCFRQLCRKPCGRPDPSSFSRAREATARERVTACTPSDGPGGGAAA

C=C(CCC(C)C1CCC2C1(C)CC(O)C13CC14C(=O)CC(O)C(C)(C(=O)O)C4C(=O)CC23O)C(C)C [FR171456, (1R,2aR,3R,5aR,5bS,7aR,8S,9S,11aS,12aR)-1,5b,9-trihydroxy-2a,8-dimethyl-3-((R)-6-methyl-5-methyleneheptan-2-yl)-7,11-dioxohexadecahydrocyclopenta[a]cyclopropa[e]-phenanthrene-8-carboxylic acid]
IC50 [1]: 100 nM
MIC [2]: 32 µg/mL and 72 µM
MIC [3]: 32 µg/mL and 72 µM
IC50 [4]: 13600 nM
IC50 ([4]; Saccharomyces cerevisiae, 14 h): 14000 nM
Loewe synergy score ([5]; combination of Amphotericin B and FR171456, text prints R. oryzae, Supplementary Fig. 4 F. solani): 2.7
Loewe synergy score ([5]; combination with posaconazole): < 1
IC50 [6]: 6.3 nM
specificity in receptor/enzyme panel [7]: only one target with significant binding
Erg26p precursor (4α-methylzymosterol-4-carboxylic acid) level ([8]; FR171456 1466 nM for 7 h): accumulates
IC80 ([8]; Saccharomyces cerevisiae, yeast in YP-gal (2%)+Raffinose (1%), fermenter 30 °C): 1470 nM
dose giving significant reduction in serum cholesterol ([9]; rabbits treated for 3 weeks ref 14): 1 µg/kg
adverse effects ([9]; rabbits, 3 weeks, doses up to 1 mg kg^−1 ref 14): no adverse effects reported
side effects ([9]; rabbits, efficacious doses for 14 days ref 14): no reported side effects
concentration not affecting proliferation [10]: > 4 µM
